Measured values reported in patent US20240360126A1, “PYRAZOLO[3,4-B]PYRIDINE COMPOUNDS FOR THE TREATMENT OF AUTOIMMUNE DISEASE” (Hoffmann-La Roche Inc., priority 2021, published 2024).

Target: T1, TLR9 (Homo sapiens, UniProt Q9NR96)
T1 sequence (Q9NR96 26-1032): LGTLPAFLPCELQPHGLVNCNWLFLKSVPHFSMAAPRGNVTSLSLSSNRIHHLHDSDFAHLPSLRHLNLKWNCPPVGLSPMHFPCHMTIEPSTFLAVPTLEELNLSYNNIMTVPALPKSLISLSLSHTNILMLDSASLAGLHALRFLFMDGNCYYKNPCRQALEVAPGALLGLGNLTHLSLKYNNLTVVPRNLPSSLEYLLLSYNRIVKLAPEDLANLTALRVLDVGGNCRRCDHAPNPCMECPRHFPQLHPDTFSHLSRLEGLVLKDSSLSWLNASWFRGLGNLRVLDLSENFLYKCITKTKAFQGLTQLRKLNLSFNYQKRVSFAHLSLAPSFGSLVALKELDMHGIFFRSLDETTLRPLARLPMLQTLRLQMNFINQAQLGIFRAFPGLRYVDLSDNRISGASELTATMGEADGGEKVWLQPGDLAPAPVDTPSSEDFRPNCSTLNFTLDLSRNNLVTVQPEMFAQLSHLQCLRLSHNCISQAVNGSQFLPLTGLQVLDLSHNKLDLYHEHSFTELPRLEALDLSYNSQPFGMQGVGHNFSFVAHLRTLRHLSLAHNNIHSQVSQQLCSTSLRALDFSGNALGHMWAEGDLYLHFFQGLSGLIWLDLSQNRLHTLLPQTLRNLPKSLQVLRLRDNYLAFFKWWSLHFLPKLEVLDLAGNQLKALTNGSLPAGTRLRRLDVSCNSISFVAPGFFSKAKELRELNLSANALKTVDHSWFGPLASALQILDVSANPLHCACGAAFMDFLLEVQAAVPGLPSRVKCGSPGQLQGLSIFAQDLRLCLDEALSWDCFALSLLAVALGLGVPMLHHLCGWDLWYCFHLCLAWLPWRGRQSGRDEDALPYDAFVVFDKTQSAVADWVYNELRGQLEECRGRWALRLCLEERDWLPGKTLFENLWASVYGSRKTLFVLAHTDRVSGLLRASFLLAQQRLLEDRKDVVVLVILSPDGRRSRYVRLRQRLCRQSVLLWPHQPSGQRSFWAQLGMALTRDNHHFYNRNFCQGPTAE
Assay: HEK293-Blue-hTLR-9 cells assay
Format: cell-based
Set-up: host or cells: HEK293 (HEK-Blue hTLR9)
Settings: HEK293-Blue-hTLR9 cells, ODN2006 stimulation, 20 hrs; read-out: HEK/hTLR9 IC50
Description: A stable HEK293-Blue-hTLR-9 cell line was purchased from InvivoGen (Cat. #: hkb-htlr9, San Diego, California, USA). These cells were originally designed for studying the stimulation of human TLR9 by monitoring the activation of NF-κB. A SEAP (secreted embryonic alkaline phosphatase) reporter gene was placed under the control of the IFN-β minimal promoter fused to five NF-κB and AP-1-binding sites. The SEAP was induced by activating NF-κB and AP-1 via stimulating HEK-Blue hTLR9 cells with TLR9 ligands. Therefore the reporter expression was declined by TLR9 antagonist under the stimulation of a ligand, such as ODN2006 (Cat. #: tlrl-2006-1, Invivogen, San Diego, California, USA), for incubation of 20 hrs. The cell culture supernatant SEAP reporter activity was determined using QiANTI-Blue™ kit (Cat. #: rep-qbl, Invivogen, San Diego, California, USA) at a wavelength of 640 nm, a detection medium that turns purple or blue in the presence of alkaline phosphatase.
HEK293-Blue-hTLR9 cells were incubated at a density of 250,000-450,000 cells/mL in a volume of 170 μL in a 96-well plate in Dulbecco's Modified Eagle's medium (DMEM) containing 4.5 g/L glucose, 50 U/mL penicillin, […], […], 10% (v/v) heat-inactivated fetal bovine serum with addition of 20 μL test compound in a serial dilution in the presence of final DMSO at 1% and 10 μL of 20 μM ODN2006 in above DMEM, perform incubation under 37° C. in a C02 incubator for 20 hrs. Then 20 μL of the supernatant from each well was incubated with 180 μl. Quanti-blue substrate solution at 37° C. for 2 h and the absorbance was read at 620˜655 nm using a spectrophotometer. The signaling pathway that TLR9 activation leads to downstream NF-κB activation has been widely accepted, and therefore similar reporter assay was modified for evaluating TLR9 antagonist.

| IC50 [nM] | SMILES |
| --- | --- |
| 220 | Cc1cc(N2CCC(c3cnc(N4CCNCC4)cc3C)[C@H](C)C2)c2cnn(C)c2n1 (single isomer, unassigned) [Example 20, 1,6-dimethyl-4-[cis-3-methyl-4-(4-methyl-6-piperazin-1-yl-3-pyridyl)-1-piperidyl]pyrazolo[3,4-b]pyridine] |
| 372 | Cc1cc(N2CCC(c3cnc(N4CCNCC4)cc3C)[C@H](C)C2)c2cnn(C)c2n1 (single isomer, unassigned) [Example 21, 1,6-dimethyl-4-[trans-3-methyl-4-(4-methyl-6-piperazin-1-yl-3-pyridyl)-1-piperidyl]pyrazolo[3,4-b]pyridine] |
| 315 | Cc1cc(N2CCC(c3ncc(N4CCNCC4)nc3C)[C@H](C)C2)c2cnn(C)c2n1 (single isomer, unassigned) [Example 22, 1,6-dimethyl-4-[cis-3-methyl-4-(3-methyl-5-piperazin-1-yl-pyrazin-2-yl)-1-piperidyl]pyrazolo[3,4-b]pyridine] |
| 368 | Cc1cc(N2CCC(c3ncc(N4CCNCC4)nc3C)[C@H](C)C2)c2cnn(C)c2n1 (single isomer, unassigned) [Example 23, 1,6-dimethyl-4-[trans-3-methyl-4-(3-methyl-5-piperazin-1-yl-pyrazin-2-yl)-1-piperidyl]pyrazolo[3,4-b]pyridine] |
| 76 | Cc1cc(N2CCC(c3ncc(N4CCNCC4)cc3C)[C@H](C)C2)c2cnn(C)c2n1 (single isomer, unassigned) [Example 24, 1,6-dimethyl-4-[cis-3-methyl-4-(3-methyl-5-piperazin-1-yl-2-pyridyl)-1-piperidyl]pyrazolo[3,4-b]pyridine] |
| 98 | Cc1cc(N2CCC(c3ncc(N4CCNCC4)cc3C)[C@H](C)C2)c2cnn(C)c2n1 (single isomer, unassigned) [Example 25, 1,6-dimethyl-4-[trans-3-methyl-4-(3-methyl-5-piperazin-1-yl-2-pyridyl)-1-piperidyl]pyrazolo[3,4-b]pyridine] |
| 275 | Cc1cc(N2CCC(c3ccc(N4CCNCC4)cc3)CC2)c2cnn(C)c2n1 [Example 1, 1,6-dimethyl-4-[4-(4-piperazin-1-ylphenyl)-1-piperidyl]pyrazolo[3,4-b]pyridine] |
| 142 | Cc1cc(N2CCC(c3ccc(N4CCNCC4)cn3)CC2)c2cnn(C)c2n1 [Example 2, 1,6-dimethyl-4-[4-(5-piperazin-1-yl-2-pyridyl)-1-piperidyl]pyrazolo[3,4-b]pyridine] |
| 124 | Cc1cc(N2CCC(c3cnc(N4CCNCC4)cn3)CC2)c2cnn(C)c2n1 [Example 3, 1,6-dimethyl-4-[4-(5-piperazin-1-ylpyrazin-2-yl)-1-piperidyl]pyrazolo[3,4-b]pyridine] |
| 379 | Cc1cc(N2CCC(c3ncc(N4CCNCC4)cn3)CC2)c2cnn(C)c2n1 [Example 4, 1,6-dimethyl-4-[4-(5-piperazin-1-ylpyrimidin-2-yl)-1-piperidyl]pyrazolo[3,4-b]pyridine] |
| 364 | Cc1cc(N2CCNCC2)cnc1C1CCN(c2ccnc3c2cnn3C)CC1 [Example 5, 1-methyl-4-[4-(3-methyl-5-piperazin-1-yl-2-pyridyl)-1-piperidyl]pyrazolo[3,4-b]pyridine] |
| 208 | Cc1cc(N2CCNCC2)ncc1C1CCN(c2ccnc3c2cnn3C)CC1 [Example 6, 1-methyl-4-[4-(4-methyl-6-piperazin-1-yl-3-pyridyl)-1-piperidyl]pyrazolo[3,4-b]pyridine] |
| 52 | Cc1cc(N2CCC(c3ncc(N4CCNCC4)cc3C)CC2)c2cnn(C)c2n1 [Example 7, 1,6-dimethyl-4-[4-(3-methyl-5-piperazin-1-yl-2-pyridyl)-1-piperidyl]pyrazolo[3,4-b]pyridine] |
| 195 | Cc1cc(N2CCC(c3cnc(N4CCNCC4)cc3C)CC2)c2cnn(C)c2n1 [Example 8, 1,6-dimethyl-4-[4-(4-methyl-6-piperazin-1-yl-3-pyridyl)-1-piperidyl]pyrazolo[3,4-b]pyridine] |
| 120 | Cc1cc(N2CCC(c3cc(C)c(N4CCNCC4)cn3)CC2)c2cnn(C)c2n1 [Example 9, 1,6-dimethyl-4-[4-(4-methyl-5-piperazin-1-yl-2-pyridyl)-1-piperidyl]pyrazolo[3,4-b]pyridine] |
| 212 | Cc1cc(N2CCC(c3ccc(N4CCNCC4)nc3C)CC2)c2cnn(C)c2n1 [Example 10, 1,6-dimethyl-4-[4-(2-methyl-6-piperazin-1-yl-3-pyridyl)-1-piperidyl]pyrazolo[3,4-b]pyridine] |
| 104 | Cc1cc(N2CCC(c3cnc(N4CCNCC4)nc3C)CC2)c2cnn(C)c2n1 [Example 11, 1,6-dimethyl-4-[4-(4-methyl-2-piperazin-1-yl-pyrimidin-5-yl)-1-piperidyl]pyrazolo[3,4-b]pyridine] |
| 168 | CCc1cc(N2CCNCC2)cnc1C1CCN(c2cc(C)nc3c2cnn3C)CC1 [Example 13, 4-[4-(3-ethyl-5-piperazin-1-yl-2-pyridyl)-1-piperidyl]-1,6-dimethyl-pyrazolo[3,4-b]pyridine] |
| 225 | COc1cc(N2CCNCC2)cnc1C1CCN(c2cc(C)nc3c2cnn3C)CC1 [Example 14, 4-[4-(3-methoxy-5-piperazin-1-yl-2-pyridyl)-1-piperidyl]-1,6-dimethyl-pyrazolo[3,4-b]pyridine] |
| 130 | Cc1cc(N2CCC(c3ncc(N4CC[C@@H](N)[C@@H](F)C4)cc3C)CC2)c2cnn(C)c2n1 [Example 15, (3S,4R)-1-[6-[1-(1,6-dimethylpyrazolo[3,4-b]pyridin-4-yl)-4-piperidyl]-5-methyl-3-pyridyl]-3-fluoro-piperidin-4-amine] |
| 143 | COC[C@H]1CN(c2cnc(C3CCN(c4cc(C)nc5c4cnn5C)CC3)c(C)c2)CCN1 [Example 16, 4-[4-[5-[(3R)-3-(methoxymethyl)piperazin-1-yl]-3-methyl-2-pyridyl]-1-piperidyl]-1,6-dimethyl-pyrazolo[3,4-b]pyridine] |
| 73 | CO[C@H]1CN(c2cnc(C3CCN(c4cc(C)nc5c4cnn5C)CC3)c(C)c2)CC[C@@H]1N [Example 17, (3S,4S)-1-[6-[1-(1,6-dimethylpyrazolo[3,4-b]pyridin-4-yl)-4-piperidyl]-5-methyl-3-pyridyl]-3-methoxy-piperidin-4-amine] |
| 109 | CO[C@@H]1CN(c2cnc([C@@H]3CCN(c4cc(C)nc5c4cnn5C)C[C@H]3C)c(C)c2)C[C@H]1N [Example 26, (3R,4R)-1-[6-[(3S,4R)-1-(1,6-dimethylpyrazolo[3,4-b]pyridin-4-yl)-3-methyl-4-piperidyl]-5-methyl-3-pyridyl]-4-methoxy-pyrrolidin-3-amine] |
| 184 | Cc1cc(N2CC[C@@H](c3ncc(N4CC5(CNCCO5)C4)cc3C)[C@H](C)C2)c2cnn(C)c2n1 [Example 27, 2-[6-[(3S,4R)-1-(1,6-dimethylpyrazolo[3,4-b]pyridin-4-yl)-3-methyl-4-piperidyl]-5-methyl-3-pyridyl]-5-oxa-2,8-diazaspiro[3.5]nonane] |
| 126 | Cc1cc(N2CC[C@@H](c3ncc(N4CCOC[C@@H](N)C4)cc3C)[C@H](C)C2)c2cnn(C)c2n1 [Example 28, (6S)-4-[6-[(3S,4R)-1-(1,6-dimethylpyrazolo[3,4-b]pyridin-4-yl)-3-methyl-4-piperidyl]-5-methyl-3-pyridyl]-1,4-oxazepan-6-amine] |
